From US10800791B2, “Triazole ACC inhibitors and uses thereof” (Gilead Apollo, LLC, priority 2015, dated 2020)
≈ marks a conversion by molar mass, not a printed value. Read-outs that look alike come from different tables or passages of the source.

Legend:
[1] = test system: C. krusei; assay: Antifungal Activity Assay (broth microtiter MIC), C. krusei; format: cell-based, Candida krusei; settings: Pichia kudriavzevii, ATCC6258, 48 h
Summary of the method: (§1)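 MIC read by eye at 48 h, comparing challenged wells with the growth control. Yeasts grown overnight on Sabouraud dextrose agar at 35° C, suspended in RPMI 1640+MOPS and added at 2.5×10^3 CFU/mL final, following CLSI M27-A3.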

[2] = test system: C. albicans; assay: Antifungal Activity Assay (broth microtiter MIC), C. albicans; format: cell-based, Candida albicans; settings: Candida albicans, ATCC90028, 48 h
Summary of the method: as §1

[3] = test system: C. parapsilosis; assay: Antifungal Activity Assay (broth microtiter MIC), C. parapsilosis; format: cell-based, Candida parapsilosis; settings: Lodderomyces parapsilosis, ATCC22019, 48 h
Summary of the method: as §1

[4] = molecular target: human (hACC2) (Homo sapiens, UniProt O00763); assay: In vitro ACC inhibition assay (ADP-Glo), hACC2; format: biochemical; settings: 5 nM ACC2, 20 μM ATP, 20 μM acetyl-CoA
Chain of human (hACC2) (O00763 whole entry): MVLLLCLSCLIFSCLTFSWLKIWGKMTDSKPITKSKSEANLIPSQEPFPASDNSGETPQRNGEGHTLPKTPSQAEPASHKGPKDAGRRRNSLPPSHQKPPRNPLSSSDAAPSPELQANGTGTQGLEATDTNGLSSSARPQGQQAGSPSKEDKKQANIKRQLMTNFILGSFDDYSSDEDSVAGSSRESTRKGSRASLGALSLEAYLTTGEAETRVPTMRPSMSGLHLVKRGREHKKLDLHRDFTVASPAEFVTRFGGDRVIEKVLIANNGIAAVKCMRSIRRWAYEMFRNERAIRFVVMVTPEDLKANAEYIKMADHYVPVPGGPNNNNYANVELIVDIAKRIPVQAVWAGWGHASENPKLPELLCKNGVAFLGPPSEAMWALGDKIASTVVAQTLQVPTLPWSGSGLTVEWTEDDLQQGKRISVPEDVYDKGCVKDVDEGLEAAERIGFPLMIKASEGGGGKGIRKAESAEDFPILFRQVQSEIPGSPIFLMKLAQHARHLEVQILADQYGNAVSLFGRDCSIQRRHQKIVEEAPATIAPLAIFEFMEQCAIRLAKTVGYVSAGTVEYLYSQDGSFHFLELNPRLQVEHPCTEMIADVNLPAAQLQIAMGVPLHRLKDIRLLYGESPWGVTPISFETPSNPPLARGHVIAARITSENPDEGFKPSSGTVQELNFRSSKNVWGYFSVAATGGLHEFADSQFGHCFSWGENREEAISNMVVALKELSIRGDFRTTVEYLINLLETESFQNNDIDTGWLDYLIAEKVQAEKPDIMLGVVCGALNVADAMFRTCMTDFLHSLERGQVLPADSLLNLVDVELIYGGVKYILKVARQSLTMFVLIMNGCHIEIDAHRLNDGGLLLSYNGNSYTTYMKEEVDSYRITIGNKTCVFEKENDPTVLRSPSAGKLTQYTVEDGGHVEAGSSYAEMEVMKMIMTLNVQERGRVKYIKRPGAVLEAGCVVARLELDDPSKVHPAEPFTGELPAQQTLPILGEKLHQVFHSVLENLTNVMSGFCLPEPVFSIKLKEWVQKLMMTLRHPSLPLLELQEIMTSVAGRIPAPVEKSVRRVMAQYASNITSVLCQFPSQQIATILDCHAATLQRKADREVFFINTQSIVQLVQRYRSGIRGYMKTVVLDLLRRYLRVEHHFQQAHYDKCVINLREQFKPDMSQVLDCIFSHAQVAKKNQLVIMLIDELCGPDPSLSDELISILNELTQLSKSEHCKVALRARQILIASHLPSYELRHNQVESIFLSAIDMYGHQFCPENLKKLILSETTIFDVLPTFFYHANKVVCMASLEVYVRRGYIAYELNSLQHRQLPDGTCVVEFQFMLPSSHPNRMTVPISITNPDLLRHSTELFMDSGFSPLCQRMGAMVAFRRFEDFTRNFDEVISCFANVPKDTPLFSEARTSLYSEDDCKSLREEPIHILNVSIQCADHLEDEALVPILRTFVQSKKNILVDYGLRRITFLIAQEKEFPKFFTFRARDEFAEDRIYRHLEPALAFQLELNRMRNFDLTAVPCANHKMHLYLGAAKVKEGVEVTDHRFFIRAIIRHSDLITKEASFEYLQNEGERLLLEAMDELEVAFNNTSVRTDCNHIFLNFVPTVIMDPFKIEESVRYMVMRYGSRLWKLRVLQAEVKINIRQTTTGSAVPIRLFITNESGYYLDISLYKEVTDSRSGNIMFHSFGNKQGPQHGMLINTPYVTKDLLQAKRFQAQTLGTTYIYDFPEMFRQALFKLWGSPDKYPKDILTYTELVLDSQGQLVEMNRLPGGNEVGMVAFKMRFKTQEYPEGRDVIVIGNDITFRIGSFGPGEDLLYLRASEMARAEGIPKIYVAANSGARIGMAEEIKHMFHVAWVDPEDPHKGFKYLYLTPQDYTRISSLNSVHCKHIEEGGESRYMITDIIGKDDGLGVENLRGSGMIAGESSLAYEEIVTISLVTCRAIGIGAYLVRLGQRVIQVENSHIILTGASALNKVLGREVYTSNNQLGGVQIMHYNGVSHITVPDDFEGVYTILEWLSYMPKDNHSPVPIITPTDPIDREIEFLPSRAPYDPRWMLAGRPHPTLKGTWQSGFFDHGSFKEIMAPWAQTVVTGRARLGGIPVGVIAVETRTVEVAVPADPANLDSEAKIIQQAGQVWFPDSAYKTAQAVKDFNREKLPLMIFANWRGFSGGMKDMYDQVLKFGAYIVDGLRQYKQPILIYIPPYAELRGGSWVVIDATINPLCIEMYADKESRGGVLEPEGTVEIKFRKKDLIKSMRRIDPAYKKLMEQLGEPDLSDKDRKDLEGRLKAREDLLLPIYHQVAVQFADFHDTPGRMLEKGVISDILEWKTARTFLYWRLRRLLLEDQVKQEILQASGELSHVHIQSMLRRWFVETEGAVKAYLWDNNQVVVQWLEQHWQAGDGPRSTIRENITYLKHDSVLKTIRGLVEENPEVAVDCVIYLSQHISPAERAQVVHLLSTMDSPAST
Procedure: The detailed procedure is as follows. […] 10 μL ADP glo reagent was added. […] 20 μL kinase detection reagent was added.

[5] = molecular target: fungal (fACC2) (UniProt Q00955); settings: read-out: fACC2 (in vitro ACC2 Inhibition Assay, IC50), ADP-Glo, 5 nM ACC2, 20 μM ATP, 20 μM acetyl-CoA
Chain of fungal (fACC2) (Q00955 whole entry): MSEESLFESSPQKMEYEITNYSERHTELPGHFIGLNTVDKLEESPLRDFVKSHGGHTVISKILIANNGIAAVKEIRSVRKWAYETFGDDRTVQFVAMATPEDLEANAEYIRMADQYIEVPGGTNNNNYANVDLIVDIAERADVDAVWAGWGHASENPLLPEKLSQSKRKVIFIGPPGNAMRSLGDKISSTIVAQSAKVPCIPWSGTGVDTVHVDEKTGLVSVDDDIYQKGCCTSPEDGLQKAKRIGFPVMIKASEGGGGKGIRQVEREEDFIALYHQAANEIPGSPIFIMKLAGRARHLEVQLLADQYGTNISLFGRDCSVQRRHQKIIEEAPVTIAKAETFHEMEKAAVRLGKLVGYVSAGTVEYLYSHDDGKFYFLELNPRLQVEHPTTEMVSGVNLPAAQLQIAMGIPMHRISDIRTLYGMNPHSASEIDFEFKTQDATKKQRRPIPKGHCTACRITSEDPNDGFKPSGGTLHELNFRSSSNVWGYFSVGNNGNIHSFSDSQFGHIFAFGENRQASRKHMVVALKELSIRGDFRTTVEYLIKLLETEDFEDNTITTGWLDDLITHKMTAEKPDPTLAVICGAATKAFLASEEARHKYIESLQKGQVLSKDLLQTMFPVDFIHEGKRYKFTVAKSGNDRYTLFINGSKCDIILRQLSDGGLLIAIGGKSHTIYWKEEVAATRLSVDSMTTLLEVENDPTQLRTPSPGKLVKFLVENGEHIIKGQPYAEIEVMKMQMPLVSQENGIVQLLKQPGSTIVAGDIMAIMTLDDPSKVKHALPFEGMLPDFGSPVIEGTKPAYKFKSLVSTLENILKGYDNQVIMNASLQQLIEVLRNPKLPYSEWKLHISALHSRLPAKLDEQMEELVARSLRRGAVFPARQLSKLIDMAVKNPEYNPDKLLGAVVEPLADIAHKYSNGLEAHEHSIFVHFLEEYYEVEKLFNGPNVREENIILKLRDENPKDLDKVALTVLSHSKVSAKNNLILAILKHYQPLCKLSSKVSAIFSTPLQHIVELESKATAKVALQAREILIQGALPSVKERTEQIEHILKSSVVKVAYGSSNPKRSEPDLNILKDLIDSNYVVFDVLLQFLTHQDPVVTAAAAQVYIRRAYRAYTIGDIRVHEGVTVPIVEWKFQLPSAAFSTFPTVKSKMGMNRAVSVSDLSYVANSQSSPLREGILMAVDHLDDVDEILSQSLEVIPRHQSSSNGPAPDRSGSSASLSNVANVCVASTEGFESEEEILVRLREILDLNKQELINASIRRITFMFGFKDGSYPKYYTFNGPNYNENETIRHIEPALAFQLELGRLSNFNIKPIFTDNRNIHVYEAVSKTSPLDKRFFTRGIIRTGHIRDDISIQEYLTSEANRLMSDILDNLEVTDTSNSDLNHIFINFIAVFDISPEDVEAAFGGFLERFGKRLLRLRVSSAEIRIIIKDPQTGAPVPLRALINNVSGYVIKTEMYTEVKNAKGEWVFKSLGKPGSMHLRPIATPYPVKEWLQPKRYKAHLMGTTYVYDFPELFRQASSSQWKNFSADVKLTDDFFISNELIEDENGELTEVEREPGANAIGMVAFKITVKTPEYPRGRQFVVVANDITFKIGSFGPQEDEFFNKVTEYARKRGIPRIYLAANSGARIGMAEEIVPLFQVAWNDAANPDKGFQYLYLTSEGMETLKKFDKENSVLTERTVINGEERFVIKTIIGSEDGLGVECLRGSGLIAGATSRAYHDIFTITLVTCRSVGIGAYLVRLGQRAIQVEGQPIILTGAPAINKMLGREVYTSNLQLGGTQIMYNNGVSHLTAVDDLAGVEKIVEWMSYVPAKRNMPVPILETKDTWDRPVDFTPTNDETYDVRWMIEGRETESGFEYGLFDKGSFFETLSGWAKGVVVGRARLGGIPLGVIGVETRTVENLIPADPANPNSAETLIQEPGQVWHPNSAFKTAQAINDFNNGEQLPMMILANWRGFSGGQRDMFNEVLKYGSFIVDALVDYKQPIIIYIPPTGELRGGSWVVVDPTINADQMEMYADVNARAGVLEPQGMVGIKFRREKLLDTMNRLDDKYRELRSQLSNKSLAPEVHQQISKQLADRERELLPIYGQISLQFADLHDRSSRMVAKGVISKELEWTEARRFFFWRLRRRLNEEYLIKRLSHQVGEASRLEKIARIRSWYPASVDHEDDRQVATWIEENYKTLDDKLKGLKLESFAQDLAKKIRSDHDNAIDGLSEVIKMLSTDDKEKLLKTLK

[6] = read-out: MIC, C. krusei ATCC 6258, Table 3b (additional results), 3 replicates, MIC recorded at 48 h
[7] = read-out: MIC, C. albicans ATCC 90028, Table 3b (additional results), 3 replicates, MIC recorded at 48 h
[8] = read-out: MIC, C. parapsilosis ATCC 22019, Table 3b (additional results), 3 replicates, MIC recorded at 48 h
[9] = Table 3a, ATCC 6258, 3 replicates, MIC recorded at 48 h, read-out: MIC, C. krusei ATCC 6258
[10] = Table 3b (additional results), ATCC 6258, 3 replicates, MIC recorded at 48 h, read-out: MIC, C. krusei ATCC 6258
[11] = Table 3a, ATCC 90028, 3 replicates, MIC recorded at 48 h, read-out: MIC, C. albicans ATCC 90028
[12] = Table 3b (additional results), ATCC 90028, 3 replicates, MIC recorded at 48 h, read-out: MIC, C. albicans ATCC 90028
[13] = Table 3a, ATCC 22019, 3 replicates, MIC recorded at 48 h, read-out: MIC, C. parapsilosis ATCC 22019
[14] = Table 3b (additional results), ATCC 22019, 3 replicates, MIC recorded at 48 h, read-out: MIC, C. parapsilosis ATCC 22019

| SMILES | MIC ([1]; read-out: MIC, C. krusei ATCC 6258, Table 3a, 3 replicates, MIC recorded at 48 h) [µg/mL] | MIC [1, 6] [µg/mL] | MIC ([2]; read-out: MIC, C. albicans ATCC 90028, Table 3a, 3 replicates, MIC recorded at 48 h) [µg/mL] | MIC [2, 7] [µg/mL] | MIC ([3]; read-out: MIC, C. parapsilosis ATCC 22019, Table 3a, 3 replicates, MIC recorded at 48 h) [µg/mL] | MIC [3, 8] [µg/mL] | IC50 ([4]; Table 2a) [nM] | IC50 ([4]; Table 2b, additional results) [nM] | IC50 ([5]; Table 2a) [nM] | IC50 ([5]; Table 2b, additional results) [nM] | MIC [1, 9] [µg/mL] | MIC [1, 10] [µg/mL] | MIC [2, 11] [µg/mL] | MIC [2, 12] [µg/mL] | MIC [3, 13] [µg/mL] | MIC [3, 14] [µg/mL] |
| --- | --- | --- | --- | --- | --- | --- | --- | --- | --- | --- | --- | --- | --- | --- | --- | --- |
| COc1ccc(F)cc1[C@H](Cn1c(=O)n(C(C)(C)C(=O)NC(C)C)c(=O)c2c(C)c(-n3nccn3)sc21)O[C@H]1CC[C@@H](C#N)CC1 [Compound I-158] | 0.25 to 1 (≈ 0.384 to 1.53 µM) | 0.06 to 0.249 (≈ 0.0921 to 0.382 µM) | 0.25 to 1 (≈ 0.384 to 1.53 µM) | 0.25 to 1 (≈ 0.384 to 1.53 µM) | 1.1 to 2 (≈ 1.69 to 3.07 µM) | 0.25 to 1 (≈ 0.384 to 1.53 µM) | 10 to 40 | 10 to 40 | 1 to 5 | 1 to 5 | – | – | – | – | – | – |
| COc1ccc(F)cc1[C@@H](Cn1c(=O)n(C(C)(C)C(=O)NC(C)C)c(=O)c2c(C)c(-n3nccn3)sc21)OC(=O)C(C)(C)O [Compound I-263] | – | 0.25 to 1 (≈ 0.396 to 1.59 µM) | – | 0.25 to 1 (≈ 0.396 to 1.59 µM) | – | 1.01 to 2 (≈ 1.6 to 3.17 µM) | – | 10 to 40 | – | 0.3 to 1 | – | – | – | – | – | – |
| COc1ccc(F)cc1[C@H](Cn1c(=O)n([C@@H](C)C(=O)N(C)C(C)C)c(=O)c2c(C)c(-n3nccn3)sc21)OC1CCC(=O)CC1 [Compound I-165] | – | – | – | – | – | – | 5 to 10 | 5 to 10 | 1 to 5 | 1 to 5 | 0.25 to 1 (≈ 0.39 to 1.56 µM) | 0.25 to 1 (≈ 0.39 to 1.56 µM) | 0.25 to 1 (≈ 0.39 to 1.56 µM) | 0.25 to 1 (≈ 0.39 to 1.56 µM) | 1.1 to 2 (≈ 1.72 to 3.12 µM) | 1.01 to 2 (≈ 1.58 to 3.12 µM) |
| COc1ccc(F)cc1[C@H](Cn1c(=O)n(C(C)(C)C(=O)O)c(=O)c2c(C)c(-n3nccn3)sc21)O[C@H]1CC[C@@H](C#N)CC1 [Compound I-156] | – | 1.01 to 2 (≈ 1.65 to 3.28 µM) | – | 1.01 to 2 (≈ 1.65 to 3.28 µM) | – | 2.01 to 4 (≈ 3.29 to 6.55 µM) | 10 to 40 | 10 to 40 | 0.4 to 1 | 0.3 to 1 | – | – | – | – | – | – |
| COCCCO[C@@H](Cn1c(=O)n(C(C)C(=O)NC(C)C)c(=O)c2c(C)c(-n3nccn3)sc21)c1cc(F)ccc1OC (some centres unmarked) [Compound I-130] | – | – | – | – | – | – | 10 to 40 | 10 to 40 | 0.4 to 1 | 0.3 to 1 | 2.1 to 4 (≈ 3.48 to 6.64 µM) | 1.01 to 2 (≈ 1.68 to 3.32 µM) | 1.1 to 2 (≈ 1.83 to 3.32 µM) | 2.01 to 4 (≈ 3.34 to 6.64 µM) | 1.1 to 2 (≈ 1.83 to 3.32 µM) | 1.01 to 2 (≈ 1.68 to 3.32 µM) |
| COc1ccc(F)cc1[C@H](Cn1c(=O)n([C@H](C)C(=O)NC(C)C)c(=O)c2c(C)c(-n3nccn3)sc21)OCC(C)(C)O [Compound I-171] | – | 2.01 to 4 (≈ 3.34 to 6.64 µM) | – | 1.01 to 2 (≈ 1.68 to 3.32 µM) | – | 1.01 to 2 (≈ 1.68 to 3.32 µM) | 10 to 40 | 10 to 40 | 1 to 5 | 1 to 5 | – | – | – | – | – | – |
| COc1ccc(F)cc1[C@H](Cn1c(=O)n(C(C)(C)C(=O)N2CC=CC2)c(=O)c2c(C)c(-n3nccn3)sc21)OC[C@H](C)O [Compound I-117] | – | – | – | – | – | – | 5 to 10 | 5 to 10 | 0.4 to 1 | 0.3 to 1 | 0.25 to 1 (≈ 0.408 to 1.63 µM) | > 4.01 | 2.1 to 4 (≈ 3.43 to 6.53 µM) | 1.01 to 2 (≈ 1.65 to 3.26 µM) | 2.1 to 4 (≈ 3.43 to 6.53 µM) | 2.01 to 4 (≈ 3.28 to 6.53 µM) |
| COc1ccc(F)cc1[C@H](Cn1c(=O)n([C@@H](C)C(=O)N2CCCC2)c(=O)c2c(C)c(-n3nccn3)sc21)OCC(C)(C)O [Compound I-176] | – | – | – | – | – | – | 10 to 40 | 10 to 40 | 1 to 5 | 1 to 5 | – | 2.01 to 4 (≈ 3.27 to 6.51 µM) | – | 0.25 to 1 (≈ 0.407 to 1.63 µM) | – | 1.01 to 2 (≈ 1.64 to 3.25 µM) |
| COc1ccc(F)cc1[C@H](Cn1c(=O)n(C(C)(C)C(=O)NC2CCCCC2)c(=O)c2c(C)c(-n3nccn3)sc21)OCC(C)=O [Compound I-99] | – | – | – | – | – | – | 1 to 5 | 1 to 5 | 1 to 5 | 1 to 5 | 0.06 to 0.24 (≈ 0.0936 to 0.375 µM) | 0.25 to 1 (≈ 0.39 to 1.56 µM) | 0.25 to 1 (≈ 0.39 to 1.56 µM) | 1.01 to 2 (≈ 1.58 to 3.12 µM) | 0.25 to 1 (≈ 0.39 to 1.56 µM) | 0.25 to 1 (≈ 0.39 to 1.56 µM) |
| COc1ccc(F)cc1[C@H](Cn1c(=O)n([C@@H](C)C(=O)N(C)C(C)C)c(=O)c2c(C)c(-n3nccn3)sc21)OCC(C)(C)O [Compound I-170] | – | – | – | – | – | – | 10 to 40 | 10 to 40 | 0.4 to 1 | 0.3 to 1 | – | > 4.01 | – | 0.25 to 1 (≈ 0.405 to 1.62 µM) | – | 2.01 to 4 (≈ 3.26 to 6.49 µM) |
